According to ChEMBL document CHEMBL1156829 (Proc Natl Acad Sci U S A, 2008):

Key:
Plasmodium falciparum [1] = test: NOVARTIS: Inhibition of Plasmodium falciparum 3D7 (drug-susceptible) proliferation in erythrocyte-based infection assay; type: functional, organism-based; settings: Plasmodium falciparum, 3D7
Plasmodium falciparum [2] = test: NOVARTIS: Inhibition of Plasmodium falciparum W2 (drug-resistant) proliferation in erythrocyte-based infection assay; type: functional, organism-based; settings: Plasmodium falciparum, W2; read-out: EC50
[3] = NOVARTIS: Cytotoxicity against human hepatocellular carcinoma cell line (Huh7); type: toxicity, cell-based, Huh-7; settings: Huh7 cells (hepatocellular carcinoma cell line)

Compound | EC50 (Plasmodium falciparum [1]) [nM] | EC50 (Plasmodium falciparum [2]) [nM] | CC50 [3] [nM]
CCCCCN(C(=O)c1ccc2ccccc2c1)C(CC)c1nc2ccccc2c(=O)n1-c1ccc(Cl)cc1C (centres undefined) | 961 | 587 | > 10000
COc1ccc2nc(-c3ccccc3)cc(NCCN(C)C)c2c1 | 171 | 478 | > 10000
c1ccc(-c2nc(-c3ccc4cccnc4c3)n(-n3c(-c4ccc5cccnc5c4)nc(-c4ccccc4)c3-c3ccccc3)c2-c2ccccc2)cc1 | 3640 | 1500 | 29100
C=CCc1c(C)nc2ccc(Br)cc2c1O | 1600 | 1780 | > 100000
Cc1ccc(-c2cc(C(=O)OCC(=O)c3cccc([N+](=O)[O-])c3)c3cc(C)ccc3n2)cc1 | > 12500 | 1090 | > 100000
O=[N+]([O-])c1ccc(C=NNc2nc(Nc3ccccc3)nc(Nc3ccccc3)n2)o1 | 625 | 454 | 20700
CCOC(=O)C1CCN(C(=S)Nc2ccc3nsnc3c2)CC1 | 347 | 370 | 30300
CO[C@H]1O[C@@H]2COC(c3ccccc3)O[C@H]2[C@@H](O)[C@@H]1OCc1ccccc1 (some centres undefined) | 376 | 555 | > 13800
COc1cc(/C=C(\C#N)c2nc3ccccc3[nH]2)ccc1OCc1ccccc1 | 728 | 1210 | > 10000
CCOc1cc2c(cc1OCC)C(c1cc(OC)c(O)cc1Cl)NCC2 (centres undefined) | 362 | 95.8 | 74200
CC(C)CCn1nc(C(=O)N2CCOCC2)c2c1CCN(C(=O)c1ccc(N3CCOCC3)cc1)C2 | > 11800 | 3960 | > 100000
COc1ccc(CC(=O)Nc2sc3c(c2C(=O)Nc2cccc4ccccc24)CCCC3)cc1 | > 1250 | 1130 | > 10000
CCCCCN1/C(=C\C=C\c2n(CCCCC)c3cc(Cl)c(Cl)cc3[n+]2CC)N(CC)c2cc(Cl)c(Cl)cc21 | > 1300 | > 1060 | > 10000
O=C(CSc1ccc2nnc(-c3cccs3)n2n1)Nc1ccccc1 | 1400 | > 3470 | > 100000
CCC(CC)CN1CCC(O)(c2ccc3oc(C(=O)Nc4ccc(OC)c(OC)c4)cc3c2)CC1 | 344 | 360 | > 85800
COc1ccc(NC(=O)CCCCCn2c(SCC(=O)NCCc3ccc(OC)c(OC)c3)nc3ccsc3c2=O)cc1 | > 5310 | 837 | > 100000
CCCOC(=O)C1=C(C)NC2=C(C(=O)CCC2)C1c1cc(Br)c(O)c(OCC)c1 (centres undefined) | > 12500 | 2820 | > 100000
CCOC(=O)C1=C(C)NC2=C(C(=O)C(C(=O)OCC)C(c3ccccc3OC)C2)C1c1cc(OC)c(OC)c(OC)c1 (centres undefined) | 1500 | 713 | > 100000
CCOc1ccccc1CN1CCCC(C(=O)N2CCCCCC2)C1 (centres undefined) | 4400 | 1420 | 37400
COc1cccc2cc(-c3nc(-c4ccccc4)cs3)c(=O)oc12 | > 611 | > 1250 | > 10000
COc1ccc(Cn2c(-c3ccc(Cl)cc3)c[n+]3ccccc23)cc1 | 693 | 541 | > 10000
Nc1ccc(-c2nc3ccc(-c4nc5ccc(N)cc5[nH]4)cc3[nH]2)cc1 | 120 | 55.6 | > 100000
c1ccc(Oc2ccc(Nc3nc4nonc4nc3Nc3ccc(Oc4ccccc4)cc3)cc2)cc1 | 1760 | > 1250 | > 10000

Compound | EC50 (Plasmodium falciparum [1]) [nM] | EC50 (Plasmodium falciparum [2]) [nM] | CC50 [3] [nM]
Clc1ccc2c(c1)c1cc(Cl)ccc1n2CC1CO1 (centres undefined) | 341 | 277 | 57400
COc1ccc(CNCc2cc3c(-c4ccc(C)cc4)nn(-c4ccccc4)c3[nH]c2=O)cc1 | 133 | 842 | > 100000
O=C(Oc1ccc(-c2ccc(OC(=O)c3ccco3)cc2)cc1)c1ccco1 | > 738 | 973 | > 10000
O=C(c1ccc([N+](=O)[O-])cc1)c1ccc(Cl)c(Cl)c1 | 251 | 555 | > 100000
CCCCOc1ccc(N2C(N)=NC(N)=NC2(C)C)cc1 | 156 | > 1250 | > 10000
NCCCNC(=O)COC(c1ccccc1)c1cccnc1Cl (centres undefined) | 81.7 | 100 | > 10000
N#Cc1c(NC(=O)COc2ccc(F)cc2F)sc2c1CCC2 | > 1250 | > 1070 | > 10000
O=c1c2ccccc2nc2n1CCN2Cc1ccc(Cl)cc1 | 1610 | 1630 | > 100000
CCOC(=O)c1ccc(NC(=O)c2cc3ccccn3n2)cc1 | > 1250 | > 500 | > 10000
CCOC(=O)c1sc(NC(=O)CSc2nnc(CNC(=O)COc3ccc(Cl)cc3)n2C)c(C(=O)OCC)c1C | 1080 | > 601 | > 10000
CCCCCCc1ccc(C(=O)Oc2ccccc2-c2nc3cc(C)ccn3c2NC(C)(C)CC(C)(C)C)cc1 | 813 | 162 | > 13800
CCc1ccc(NC(=O)c2sc3nc4c(c(-c5ccco5)c3c2N)CCCC4)cc1 | 1820 | 1070 | > 100000
CCCNC1=C(N(C(C)=O)c2cccc(F)c2)C(=O)c2ccccc2C1=O | 29 | 28.4 | 5390
CCCCc1c(C)nc2c(OC)cccc2c1O | 1690 | 2110 | > 100000
Cc1ccn2c(NC(C)(C)CC(C)(C)C)c(-c3ccccc3OC(=O)c3ccc(C(F)(F)F)cc3)nc2c1 | 847 | 19.9 | > 10000
CCN(CC)CCNc1ccnc2cc3ccccc3cc12 | 28.6 | 31.3 | 20300
O=C(CN1CCCC1C(c1ccccc1)c1ccccc1)N1CCSCC1 (centres undefined) | > 1250 | > 1080 | 12000
Cc1ccc(-n2c(SCc3cc(=O)n4ccccc4n3)nc3ccsc3c2=O)cc1C | > 1160 | > 1250 | > 10000
O=C(COC(c1ccccc1)c1c(Cl)cncc1Cl)N1CCNCC1 (centres undefined) | 592 | 2570 | 48200
O=C(NC1CCN(CC(O)CN(Cc2ccccc2)S(=O)(=O)c2ccccc2)C1)c1ccccc1 (centres undefined) | 81.9 | 56.9 | > 7270
CCOC(=O)c1cnc2ccc(OCC)cc2c1NCCCN(CC)CC | 117 | 140 | 70100
O[Si](CCCN1CCCCC1)(c1ccccc1)C1CCCCC1 (centres undefined) | 23.6 | 12.1 | 33000
COCC(=O)NCc1ccc(OC2CCN(CC(c3ccccc3)c3ccccc3)CC2)cc1 | 460 | < 16.7 | > 10000

Compound | EC50 (Plasmodium falciparum [1]) [nM] | EC50 (Plasmodium falciparum [2]) [nM] | CC50 [3] [nM]
COc1cccc2cc(C(=O)Nc3cccc(C(F)(F)F)c3)c(=O)oc12 | > 1250 | 64 | > 2370
Oc1ccc(-c2ccnc3cc(Cl)ccc23)cc1CNCCN1CCOCC1 | 984 | 622 | > 11900
Cc1ccc2[nH]c(C)c(Br)c(=O)c2c1 | 1240 | 884 | > 100000
O=C(Cc1ccc(Cl)cc1)NNS(=O)(=O)c1ccc([N+](=O)[O-])cc1 | > 893 | > 1370 | > 10000
COc1ccc(C(=O)C[n+]2ccc3c(c2)nc(-c2ccc(OC)cc2OC)n3C)cc1 | 920 | 512 | > 100000
COc1ccc(-c2nc3cc(Cc4ccc5[nH]c(-c6ccc(OC)cc6)nc5c4)ccc3[nH]2)cc1 | 234 | 775 | 6220
COc1cc(OC)c(NC(=O)C2c3ccccc3C(=O)N(C)C2c2ccc(OC)c(OC)c2)cc1Cl (centres undefined) | 983 | 328 | > 100000
Cc1cccc(N(C)c2ccnc3c(-c4cccc(C(N)=O)c4)cnn23)c1 | > 843 | > 1250 | > 10000
Cc1sc2ncnc(Nc3ccncc3)c2c1C | > 12500 | > 1450 | > 100000
COc1ccc(CN2CSC3=C(C#N)C(c4cccc(OC)c4)CC(=O)N3C2)cc1 (centres undefined) | 3700 | 3550 | > 100000
O=C(Nc1ccc(-c2nc3ccccc3[nH]2)cc1)c1cccc(C(=O)Nc2ccc(-c3nc4ccccc4[nH]3)cc2)n1 | 121 | 126 | 31700
CCC(=O)NCc1nnc(SCc2cccc(C(F)(F)F)c2)n1-c1cccc(OC)c1 | > 12500 | 5610 | > 100000
Cn1c(SCC2CCCO2)nnc1C1CCN(C/C=C/c2ccccc2)CC1 (centres undefined) | > 1280 | > 758 | > 3890
CCc1nc2nc(C)cc(Nc3ccc(I)cc3)n2n1 | 260 | < 3 | > 100000
CC1=CC(=Cc2sc3ccccc3[n+]2C)C=C(C)O1 | 31.3 | 23.7 | 8350
O=C1NN(c2ccc(Br)cc2)C(=O)C1=Cc1c(O)ccc2ccccc12 | 4880 | 818 | > 100000
CCOC(=O)C1=C(C)NC2=C(C(=O)CC(c3ccc(OC)c(OC)c3)C2)C1c1ccccc1OC (centres undefined) | 74.1 | 49.2 | > 100000
COc1ccc(-c2csc(Nc3cccc(Cl)c3C)n2)cc1OC | 8210 | 355 | > 89300
O=c1c2[nH]c3ccccc3c2ncn1Cc1ccc2c(c1)OCO2 | > 12500 | 2000 | > 100000
CN(C)CCn1c(=N)n(CC(O)c2ccc(Cl)c(Cl)c2)c2ccccc21 (centres undefined) | 256 | 457 | > 10000
COC(=O)c1cn([C@@H]2C[C@@H](C(=O)NCc3cccc(C(F)(F)F)c3)N(C3CCN(Cc4ccccc4)CC3)C2)nn1 | 1520 | 1980 | > 100000
O=C(Nc1ccccc1)NC1CC2CCCC(C1)N2CCc1ccccc1 (centres undefined) | 156 | 98.2 | > 10000
